Tested on: myocytes of mouse small mesenteric arteries
Test: Localization of dye in walls of mouse small mesenteric arteries (imaging)
Format: cell-based
Conditions: mouse small mesenteric artery wall, activated cells
Description: The plane is tangential to the artery, very close to the coverslip. The spindle-shaped cells run horizontally, the artery lumen runs vertically. […] The FLUO-MOMO images are quite bright because the cells have been activated and [Ca^2+] cyt has risen. […] (Photo courtesy of Dr. Blaustein of The University of Maryland Medical School.)

CCN(CC)c1ccc(/C=C/C=C/C=C/c2cc[n+](CCC[N+](CC)(CC)CC)cc2)cc1.[Br-].[Br-] [FM4-64]
localization of dye in the cell: localizes to the plasma membrane

Source: patent US20050233467A1, “Visible wavelength fluorescent calcium indicators that are (i) leakage resistant and (ii) operate near membranes” (priority 2004, published 2005)
